# Data taken from ChEMBL document CHEMBL5042535, “Structure-Based Design and Synthesis of N-Substituted 3-Amino-β-Carboline Derivatives as Potent αβ-Tubulin Degradation Agents” (J Med Chem, 2022).
# What was measured:
# Type in all cases: functional, cell-based
# MCF7 = assay: Antiproliferative activity against human MCF7 cells assessed as reduction in cell viability measured after 24 hrs by MTT assay; details: MCF7, 24 h
# HeLa = assay: Antiproliferative activity against human HeLa cells assessed as reduction in cell viability measured after 24 hrs by MTT assay
# Raji = assay: Antiproliferative activity against human Raji cells assessed as reduction in cell viability measured after 24 hrs by MTT assay
# NCI-H460 = assay: Antiproliferative activity against human NCI-H460 cells assessed as reduction in cell viability measured after 24 hrs by MTT assay; details: NCI-H460, 24 h
# A2780S = assay: Antiproliferative activity against human A2780S cells assessed as reduction in cell viability measured after 24 hrs by MTT assay
Compound,IC50 (MCF7) [nM],IC50 (HeLa) [nM],IC50 (Raji) [nM],IC50 (NCI-H460) [nM],IC50 (A2780S) [nM]
CC(C)CNc1cc2c(cn1)[nH]c1ccccc12,> 500,> 500,> 500,> 500,> 500
N#Cc1cccc(Oc2cccc(CNc3cc4c(cn3)[nH]c3ccccc34)c2)c1,> 500,500,> 500,> 500,> 500
N#Cc1ccccc1Oc1cccc(CNc2cc3c(cn2)[nH]c2ccccc23)c1,> 500,> 500,> 500,> 500,> 500
CC(C)CCOc1cccc(CNc2cc3c(cn2)[nH]c2ccccc23)c1,> 500,> 500,> 500,> 500,> 500
c1cc(CNc2cc3c(cn2)[nH]c2ccccc23)cc(OC2CCC2)c1,> 500,> 500,> 500,> 500,> 500
c1cc(CNc2cc3c(cn2)[nH]c2ccccc23)cc(Oc2ccc3c(c2)OCCO3)c1,> 500,> 500,> 500,> 500,> 500
c1cc2ccc3cccc4c(CNc5cc6c(cn5)[nH]c5ccccc56)cc(c1)c2c34,> 500,> 500,> 500,> 500,> 500
Cc1ccccc1Oc1cccc(CNc2cc3c(cn2)[nH]c2ccccc23)c1,59,57,32,52,62
c1ccc2c(c1)[nH]c1cnc(NCc3ccoc3)cc12,71,66,73,342,93
c1ccc(-c2ccc(CNc3cc4c(cn3)[nH]c3ccccc34)cc2)cc1,> 500,> 500,> 500,> 500,> 500
CSc1ccc(Oc2cccc(CNc3cc4c(cn3)[nH]c3ccccc34)c2)cc1,> 500,> 500,> 500,> 500,> 500
Fc1cccc(Oc2cccc(CNc3cc4c(cn3)[nH]c3ccccc34)c2)c1,59,71,42,50,41
CC(=O)Nc1ccccc1Oc1cccc(CNc2cc3c(cn2)[nH]c2ccccc23)c1,> 500,> 500,> 500,> 500,> 500
Clc1ccccc1Oc1cccc(CNc2cc3c(cn2)[nH]c2ccccc23)c1,19,63,59,74,43
c1ccc2c(c1)[nH]c1cnc(NCC3CCCCC3)cc12,> 500,> 500,> 500,> 500,> 500
c1cc(CNc2cc3c(cn2)[nH]c2ccccc23)cc(Oc2ccc3ncccc3c2)c1,64,93,119,234,78
Cc1ccc(Oc2cccc(CNc3cc4c(cn3)[nH]c3ccccc34)c2)cc1,39,56,57,165,55
COc1cc2c(c(OC)c1OC)-c1ccc(OC)c(=O)cc1[C@@H](NC(C)=O)CC2 [COLCHICINE],–,16,18,12,–
c1ccc(Oc2cccc(CNc3cc4c(cn3)[nH]c3ccccc34)c2)cc1,49,51,31,62,45
COc1cc(Oc2cccc(CNc3cc4c(cn3)[nH]c3ccccc34)c2)cc(OC)c1OC,> 500,> 500,> 500,> 500,> 500
COc1ccc(COc2cccc(CNc3cc4c(cn3)[nH]c3ccccc34)c2)cc1,> 500,> 500,> 500,> 500,> 500
COc1cccc(Oc2cccc(CNc3cc4c(cn3)[nH]c3ccccc34)c2)c1,109,219,178,313,148
COc1ccc(CNc2cc3c(cn2)[nH]c2ccccc23)cn1,> 500,> 500,> 500,> 500,> 500
c1ccc(Oc2ccc(Oc3cccc(CNc4cc5c(cn4)[nH]c4ccccc45)c3)cc2)cc1,> 500,> 500,> 500,> 500,> 500
Clc1ccc(Oc2cccc(CNc3cc4c(cn3)[nH]c3ccccc34)c2)cc1,48,45,74,222,73
COc1ccc(Oc2cccc(CNc3cc4c(cn3)[nH]c3ccccc34)c2)cc1,33,19,20,67,12

Compound,IC50 (MCF7) [nM],IC50 (HeLa) [nM],IC50 (Raji) [nM],IC50 (NCI-H460) [nM],IC50 (A2780S) [nM]
Fc1ccc(Oc2cccc(CNc3cc4c(cn3)[nH]c3ccccc34)c2)cc1,27,39,33,76,28
COCCOc1cccc(CNc2cc3c(cn2)[nH]c2ccccc23)c1,> 500,> 500,> 500,> 500,> 500
c1ccc(COc2cccc(CNc3cc4c(cn3)[nH]c3ccccc34)c2)cc1,> 500,> 500,> 500,> 500,> 500
c1ccc2c(CNc3cc4c(cn3)[nH]c3ccccc34)c[nH]c2c1,> 500,> 500,> 500,> 500,> 500
c1ccc2cc(CNc3cc4c(cn3)[nH]c3ccccc34)ccc2c1,> 500,> 500,> 500,> 500,> 500
COc1ccccc1Oc1cccc(CNc2cc3c(cn2)[nH]c2ccccc23)c1,> 500,> 500,500,> 500,> 500
Cn1cccc1CNc1cc2c(cn1)[nH]c1ccccc12,> 500,> 500,> 500,500,> 500
c1ccc2c(CNc3cc4c(cn3)[nH]c3ccccc34)cccc2c1,> 500,> 500,> 500,> 500,> 500
c1ccc2c(c1)[nH]c1cnc(NC3CCCC3)cc12,397,> 500,242,> 500,92
CCCNc1cc2c(cn1)[nH]c1ccccc12,> 500,> 500,> 500,> 500,> 500
c1cc(CNc2cc3c(cn2)[nH]c2ccccc23)cc(OCC2CC2)c1,> 500,> 500,> 500,> 500,> 500
CCCOc1cccc(CNc2cc3c(cn2)[nH]c2ccccc23)c1,> 500,> 500,> 500,> 500,> 500
Fc1ccccc1Oc1cccc(CNc2cc3c(cn2)[nH]c2ccccc23)c1,93,59,16,105,73
CC(C)COc1cccc(CNc2cc3c(cn2)[nH]c2ccccc23)c1,> 500,> 500,> 500,> 500,> 500
CC(=O)Nc1ccc(Oc2cccc(CNc3cc4c(cn3)[nH]c3ccccc34)c2)cc1,27,67,15,31,11
c1ccc2ncc(CNc3cc4c(cn3)[nH]c3ccccc34)cc2c1,> 500,> 500,> 500,> 500,> 500
CC(C)=CCNc1cc2c(cn1)[nH]c1ccccc12,> 500,> 500,382,> 500,> 500
FC(F)(F)c1ccc(Oc2cccc(CNc3cc4c(cn3)[nH]c3ccccc34)c2)cc1,68,81,54,47,85
CC(C)=CCOc1cccc(CNc2cc3c(cn2)[nH]c2ccccc23)c1,> 500,> 500,> 500,> 500,> 500
COc1ccc(Oc2cccc(CNc3cc4c(cn3)[nH]c3ccccc34)c2)cc1OC,432,266,383,> 500,264
Clc1cccc(Oc2cccc(CNc3cc4c(cn3)[nH]c3ccccc34)c2)c1,39,43,32,47,60
CCOc1cccc(CNc2cc3c(cn2)[nH]c2ccccc23)c1,> 500,> 500,> 500,> 500,> 500
c1ccc(-c2ccc(Oc3cccc(CNc4cc5c(cn4)[nH]c4ccccc45)c3)cc2)cc1,> 500,> 500,> 500,> 500,> 500
CC(C)Oc1cccc(CNc2cc3c(cn2)[nH]c2ccccc23)c1,> 500,> 500,> 500,> 500,> 500
c1cncc(Oc2cccc(CNc3cc4c(cn3)[nH]c3ccccc34)c2)c1,153,209,333,333,229
